Reference: the supplement of paper PMC10307832

Experiments:
Experiment in all cases: relative viability (nuclei count vs DMSO), 5 days (fraction); higher = more cells survive
Bosutinib + Tozasertib = compound: COc1cc(Nc2c(C#N)cnc3cc(OCCCN4CCN(C)CC4)c(OC)cc23)c(Cl)cc1Cl [Bosutinib] + Cc1cc(Nc2cc(N3CCN(C)CC3)nc(Sc3ccc(NC(=O)C4CC4)cc3)n2)n[nH]1 [Tozasertib] (partner 0.1 µM)
In short: (§1)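 Lung cancer cell lines were pin-tool dosed in 1536-well plates on the day after seeding, with either a lone drug or a fixed anchor-drug dose plus five library-drug doses (not always all listed) in √10 steps. Nuclei were counted on 4× images after 5 days. Relative viability is the ratio of treated-well to vehicle-well nuclei counts, with each value a median of duplicate plates.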

Bosutinib + Dasatinib = compound: COc1cc(Nc2c(C#N)cnc3cc(OCCCN4CCN(C)CC4)c(OC)cc23)c(Cl)cc1Cl [Bosutinib] + Cc1nc(Nc2ncc(C(=O)Nc3c(C)cccc3Cl)s2)cc(N2CCN(CCO)CC2)n1 [Dasatinib] (partner 0.075 µM)
In short: as §1

Bosutinib + Foretinib = compound: COc1cc(Nc2c(C#N)cnc3cc(OCCCN4CCN(C)CC4)c(OC)cc23)c(Cl)cc1Cl [Bosutinib] + COc1cc2c(Oc3ccc(NC(=O)C4(C(=O)Nc5ccc(F)cc5)CC4)cc3F)ccnc2cc1OCCCN1CCOCC1 [Foretinib] (partner 0.25 µM)
In short: as §1

Bosutinib + Decitabine = compound: COc1cc(Nc2c(C#N)cnc3cc(OCCCN4CCN(C)CC4)c(OC)cc23)c(Cl)cc1Cl [Bosutinib] + Nc1ncn([C@H]2C[C@H](O)[C@@H](CO)O2)c(=O)n1 [Decitabine] (partner 2 µM)
In short: as §1

Bosutinib + Navitoclax = compound: COc1cc(Nc2c(C#N)cnc3cc(OCCCN4CCN(C)CC4)c(OC)cc23)c(Cl)cc1Cl [Bosutinib] + CC1(C)CCC(c2ccc(Cl)cc2)=C(CN2CCN(c3ccc(C(=O)NS(=O)(=O)c4ccc(N[C@H](CCN5CCOCC5)CSc5ccccc5)c(S(=O)(=O)C(F)(F)F)c4)cc3)CC2)C1 [Navitoclax] (partner 0.5 µM)
In short: as §1

Cell Line: NCI-H322M
- relative viability (Bosutinib + Tozasertib; first compound 0.01 µM): 0.472
- relative viability (Bosutinib + Tozasertib; first compound 0.03162 µM): 0.46
- relative viability (Bosutinib + Tozasertib; first compound 0.1 µM): 0.497
- relative viability (Bosutinib + Tozasertib; first compound 1 µM): 0.315
- relative viability (Bosutinib + Dasatinib; first compound 0.01 µM): 0.252
- relative viability (Bosutinib + Dasatinib; first compound 0.03162 µM): 0.267
- relative viability (Bosutinib + Dasatinib; first compound 0.1 µM): 0.246
- relative viability (Bosutinib + Dasatinib; first compound 1 µM): 0.301
- relative viability (Bosutinib + Foretinib; first compound 0.01 µM): 1.04
- relative viability (Bosutinib + Foretinib; first compound 0.03162 µM): 0.867
- relative viability (Bosutinib + Foretinib; first compound 0.1 µM): 0.881
- relative viability (Bosutinib + Foretinib; first compound 1 µM): 0.414
- relative viability (Bosutinib + Decitabine; first compound 0.01 µM): 0.635
- relative viability (Bosutinib + Decitabine; first compound 0.03162 µM): 0.735
- relative viability (Bosutinib + Decitabine; first compound 0.1 µM): 0.616
- relative viability (Bosutinib + Decitabine; first compound 1 µM): 0.493
- relative viability (Bosutinib + Navitoclax; first compound 0.01 µM): 1.12
- relative viability (Bosutinib + Navitoclax; first compound 0.03162 µM): 1.25
- relative viability (Bosutinib + Navitoclax; first compound 0.1 µM): 1.28
- relative viability (Bosutinib + Navitoclax; first compound 1 µM): 1.2

Cell Line: NCI-H441
- relative viability (Bosutinib + Tozasertib; first compound 0.01 µM): 0.673
- relative viability (Bosutinib + Tozasertib; first compound 0.03162 µM): 0.589
- relative viability (Bosutinib + Tozasertib; first compound 0.1 µM): 0.599
- relative viability (Bosutinib + Tozasertib; first compound 1 µM): 0.823
- relative viability (Bosutinib + Dasatinib; first compound 0.01 µM): 0.55
- relative viability (Bosutinib + Dasatinib; first compound 0.03162 µM): 0.667
- relative viability (Bosutinib + Dasatinib; first compound 0.1 µM): 0.676
- relative viability (Bosutinib + Dasatinib; first compound 1 µM): 0.848
- relative viability (Bosutinib + Foretinib; first compound 0.01 µM): 1.03
- relative viability (Bosutinib + Foretinib; first compound 0.03162 µM): 1.21
- relative viability (Bosutinib + Foretinib; first compound 0.1 µM): 1.22
- relative viability (Bosutinib + Foretinib; first compound 1 µM): 1.25
- relative viability (Bosutinib + Decitabine; first compound 0.01 µM): 0.24
- relative viability (Bosutinib + Decitabine; first compound 0.03162 µM): 0.264
- relative viability (Bosutinib + Decitabine; first compound 0.1 µM): 0.279
- relative viability (Bosutinib + Decitabine; first compound 1 µM): 0.287
- relative viability (Bosutinib + Navitoclax; first compound 0.01 µM): 0.589
- relative viability (Bosutinib + Navitoclax; first compound 0.03162 µM): 0.599
- relative viability (Bosutinib + Navitoclax; first compound 0.1 µM): 0.411
- relative viability (Bosutinib + Navitoclax; first compound 1 µM): 0.518

Cell Line: NCI-H460
- relative viability (Bosutinib + Tozasertib; first compound 0.01 µM): 0.555
- relative viability (Bosutinib + Tozasertib; first compound 0.03162 µM): 0.545
- relative viability (Bosutinib + Tozasertib; first compound 0.1 µM): 0.479
- relative viability (Bosutinib + Tozasertib; first compound 1 µM): 0.112
- relative viability (Bosutinib + Dasatinib; first compound 0.01 µM): 0.548
- relative viability (Bosutinib + Dasatinib; first compound 0.03162 µM): 0.491
- relative viability (Bosutinib + Dasatinib; first compound 0.1 µM): 0.51
- relative viability (Bosutinib + Dasatinib; first compound 1 µM): 0.537
- relative viability (Bosutinib + Foretinib; first compound 0.01 µM): 1.01
- relative viability (Bosutinib + Foretinib; first compound 0.03162 µM): 1.03
- relative viability (Bosutinib + Foretinib; first compound 0.1 µM): 1
- relative viability (Bosutinib + Foretinib; first compound 1 µM): 0.855
- relative viability (Bosutinib + Decitabine; first compound 0.01 µM): 0.5
- relative viability (Bosutinib + Decitabine; first compound 0.03162 µM): 0.475
- relative viability (Bosutinib + Decitabine; first compound 0.1 µM): 0.539
- relative viability (Bosutinib + Decitabine; first compound 1 µM): 0.419
- relative viability (Bosutinib + Navitoclax; first compound 0.01 µM): 1.09
- relative viability (Bosutinib + Navitoclax; first compound 0.03162 µM): 1.11
- relative viability (Bosutinib + Navitoclax; first compound 0.1 µM): 1.02
- relative viability (Bosutinib + Navitoclax; first compound 1 µM): 0.683

Cell Line: NCI-H520
- relative viability (Bosutinib + Tozasertib; first compound 0.01 µM): 0.407
- relative viability (Bosutinib + Tozasertib; first compound 0.03162 µM): 0.446
- relative viability (Bosutinib + Tozasertib; first compound 0.1 µM): 0.39
- relative viability (Bosutinib + Tozasertib; first compound 1 µM): 0.347
- relative viability (Bosutinib + Dasatinib; first compound 0.01 µM): 0.226
- relative viability (Bosutinib + Dasatinib; first compound 0.03162 µM): 0.232
- relative viability (Bosutinib + Dasatinib; first compound 0.1 µM): 0.199
- relative viability (Bosutinib + Dasatinib; first compound 1 µM): 0.22
- relative viability (Bosutinib + Foretinib; first compound 0.01 µM): 0.929
- relative viability (Bosutinib + Foretinib; first compound 0.03162 µM): 0.857
- relative viability (Bosutinib + Foretinib; first compound 0.1 µM): 0.789
- relative viability (Bosutinib + Foretinib; first compound 1 µM): 0.551
- relative viability (Bosutinib + Decitabine; first compound 0.01 µM): 0.465
- relative viability (Bosutinib + Decitabine; first compound 0.03162 µM): 0.47
- relative viability (Bosutinib + Decitabine; first compound 0.1 µM): 0.533
- relative viability (Bosutinib + Decitabine; first compound 1 µM): 0.409
- relative viability (Bosutinib + Navitoclax; first compound 0.01 µM): 1.33
- relative viability (Bosutinib + Navitoclax; first compound 0.03162 µM): 0.988
- relative viability (Bosutinib + Navitoclax; first compound 0.1 µM): 1.05
- relative viability (Bosutinib + Navitoclax; first compound 1 µM): 0.964
